Measurements from patent US7786137B2, “Bicyclic derivatives as modulators of ion channels” (Vertex Pharmaceuticals Incorporated, priority 2005, dated 2010).
Where two headings read alike, the source gives them in different places.

Tests used:
[1] = target: T1, NaV1.3 (Homo sapiens, UniProt Q9NY46); assay: VIPR optical membrane potential assay, NaV1.3 inhibition; assay type: cell-based; parameters: expressed in transfected cells; host or cells: HEK293; conditions: activity against NaV 1.3 channel
Target sequence in this assay (Q9NY46 whole entry): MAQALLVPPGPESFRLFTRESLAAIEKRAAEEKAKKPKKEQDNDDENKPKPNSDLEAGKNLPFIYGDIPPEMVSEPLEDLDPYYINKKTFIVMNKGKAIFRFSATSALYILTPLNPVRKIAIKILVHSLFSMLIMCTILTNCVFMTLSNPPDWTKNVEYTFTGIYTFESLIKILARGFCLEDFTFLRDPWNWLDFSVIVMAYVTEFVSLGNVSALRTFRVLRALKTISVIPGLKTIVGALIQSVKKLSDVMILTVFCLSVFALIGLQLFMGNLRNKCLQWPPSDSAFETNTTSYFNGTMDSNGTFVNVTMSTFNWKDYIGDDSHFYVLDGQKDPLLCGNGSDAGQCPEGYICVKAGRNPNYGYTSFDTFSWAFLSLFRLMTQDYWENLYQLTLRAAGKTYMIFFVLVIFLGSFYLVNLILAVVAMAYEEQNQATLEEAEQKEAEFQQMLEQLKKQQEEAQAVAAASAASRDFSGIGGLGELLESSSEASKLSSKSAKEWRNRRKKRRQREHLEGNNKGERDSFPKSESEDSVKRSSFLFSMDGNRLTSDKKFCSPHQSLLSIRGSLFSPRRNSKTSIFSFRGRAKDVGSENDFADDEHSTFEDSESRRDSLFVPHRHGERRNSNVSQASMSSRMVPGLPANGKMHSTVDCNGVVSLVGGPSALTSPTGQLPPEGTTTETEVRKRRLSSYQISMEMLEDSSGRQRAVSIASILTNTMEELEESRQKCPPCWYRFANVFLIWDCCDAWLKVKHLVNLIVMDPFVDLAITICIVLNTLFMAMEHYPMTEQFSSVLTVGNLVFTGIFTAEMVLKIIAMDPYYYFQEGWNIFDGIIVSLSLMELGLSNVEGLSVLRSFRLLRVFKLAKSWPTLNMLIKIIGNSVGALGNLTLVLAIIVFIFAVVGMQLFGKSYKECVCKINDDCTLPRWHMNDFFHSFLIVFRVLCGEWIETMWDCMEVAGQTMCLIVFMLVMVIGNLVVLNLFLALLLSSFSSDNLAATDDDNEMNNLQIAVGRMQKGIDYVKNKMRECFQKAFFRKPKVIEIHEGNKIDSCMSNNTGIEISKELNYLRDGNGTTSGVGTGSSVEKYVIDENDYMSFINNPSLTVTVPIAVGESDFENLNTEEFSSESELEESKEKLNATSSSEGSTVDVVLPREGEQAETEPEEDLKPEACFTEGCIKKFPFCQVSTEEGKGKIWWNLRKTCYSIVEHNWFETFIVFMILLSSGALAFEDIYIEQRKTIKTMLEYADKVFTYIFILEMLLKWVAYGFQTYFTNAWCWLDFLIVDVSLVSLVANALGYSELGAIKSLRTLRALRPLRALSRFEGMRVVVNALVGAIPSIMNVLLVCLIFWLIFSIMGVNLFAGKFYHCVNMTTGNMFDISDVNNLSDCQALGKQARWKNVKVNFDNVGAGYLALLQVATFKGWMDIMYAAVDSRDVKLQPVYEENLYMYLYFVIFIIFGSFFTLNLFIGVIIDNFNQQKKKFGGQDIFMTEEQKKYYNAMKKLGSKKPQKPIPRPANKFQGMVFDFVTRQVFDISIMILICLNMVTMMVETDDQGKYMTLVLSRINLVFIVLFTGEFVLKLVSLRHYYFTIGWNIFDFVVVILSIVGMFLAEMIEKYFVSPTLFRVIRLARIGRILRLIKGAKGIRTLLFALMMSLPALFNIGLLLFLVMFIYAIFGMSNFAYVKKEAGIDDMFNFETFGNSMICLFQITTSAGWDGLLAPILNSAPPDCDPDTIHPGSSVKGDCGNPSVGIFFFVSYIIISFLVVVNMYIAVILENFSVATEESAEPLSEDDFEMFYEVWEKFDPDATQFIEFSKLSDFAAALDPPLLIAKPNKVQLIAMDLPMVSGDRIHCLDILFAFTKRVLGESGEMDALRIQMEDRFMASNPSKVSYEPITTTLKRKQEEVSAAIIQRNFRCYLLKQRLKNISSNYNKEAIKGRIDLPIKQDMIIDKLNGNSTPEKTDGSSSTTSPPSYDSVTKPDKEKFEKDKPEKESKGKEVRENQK

[2] = neuropathic pain, modest efficacy; cited from earlier work
[3] = target: NaV1.8 (Homo sapiens, UniProt Q9Y5Y9); conditions: read-out: TTX IC50; cited from earlier work
[4] = target: T1, NaV1.3; conditions: read-out: TTX IC50; cited from earlier work
Target sequence in this assay (Q9NY46 whole entry, looked up): as the sequence (Q9NY46 whole entry) above

[5] = target: NaV1.6 (Homo sapiens, UniProt Q9UQD0); conditions: read-out: TTX IC50; cited from earlier work
[6] = target: NaV1.2 (Homo sapiens, UniProt Q99250); conditions: read-out: TTX IC50; cited from earlier work
[7] = target: NaV1.9 (Homo sapiens, UniProt Q9UI33); conditions: read-out: TTX IC50; cited from earlier work
[8] = target: NaV1.1 (Homo sapiens, UniProt P35498); conditions: read-out: TTX IC50; cited from earlier work

Sequence of NaV1.6 (Q9UQD0 whole entry, looked up): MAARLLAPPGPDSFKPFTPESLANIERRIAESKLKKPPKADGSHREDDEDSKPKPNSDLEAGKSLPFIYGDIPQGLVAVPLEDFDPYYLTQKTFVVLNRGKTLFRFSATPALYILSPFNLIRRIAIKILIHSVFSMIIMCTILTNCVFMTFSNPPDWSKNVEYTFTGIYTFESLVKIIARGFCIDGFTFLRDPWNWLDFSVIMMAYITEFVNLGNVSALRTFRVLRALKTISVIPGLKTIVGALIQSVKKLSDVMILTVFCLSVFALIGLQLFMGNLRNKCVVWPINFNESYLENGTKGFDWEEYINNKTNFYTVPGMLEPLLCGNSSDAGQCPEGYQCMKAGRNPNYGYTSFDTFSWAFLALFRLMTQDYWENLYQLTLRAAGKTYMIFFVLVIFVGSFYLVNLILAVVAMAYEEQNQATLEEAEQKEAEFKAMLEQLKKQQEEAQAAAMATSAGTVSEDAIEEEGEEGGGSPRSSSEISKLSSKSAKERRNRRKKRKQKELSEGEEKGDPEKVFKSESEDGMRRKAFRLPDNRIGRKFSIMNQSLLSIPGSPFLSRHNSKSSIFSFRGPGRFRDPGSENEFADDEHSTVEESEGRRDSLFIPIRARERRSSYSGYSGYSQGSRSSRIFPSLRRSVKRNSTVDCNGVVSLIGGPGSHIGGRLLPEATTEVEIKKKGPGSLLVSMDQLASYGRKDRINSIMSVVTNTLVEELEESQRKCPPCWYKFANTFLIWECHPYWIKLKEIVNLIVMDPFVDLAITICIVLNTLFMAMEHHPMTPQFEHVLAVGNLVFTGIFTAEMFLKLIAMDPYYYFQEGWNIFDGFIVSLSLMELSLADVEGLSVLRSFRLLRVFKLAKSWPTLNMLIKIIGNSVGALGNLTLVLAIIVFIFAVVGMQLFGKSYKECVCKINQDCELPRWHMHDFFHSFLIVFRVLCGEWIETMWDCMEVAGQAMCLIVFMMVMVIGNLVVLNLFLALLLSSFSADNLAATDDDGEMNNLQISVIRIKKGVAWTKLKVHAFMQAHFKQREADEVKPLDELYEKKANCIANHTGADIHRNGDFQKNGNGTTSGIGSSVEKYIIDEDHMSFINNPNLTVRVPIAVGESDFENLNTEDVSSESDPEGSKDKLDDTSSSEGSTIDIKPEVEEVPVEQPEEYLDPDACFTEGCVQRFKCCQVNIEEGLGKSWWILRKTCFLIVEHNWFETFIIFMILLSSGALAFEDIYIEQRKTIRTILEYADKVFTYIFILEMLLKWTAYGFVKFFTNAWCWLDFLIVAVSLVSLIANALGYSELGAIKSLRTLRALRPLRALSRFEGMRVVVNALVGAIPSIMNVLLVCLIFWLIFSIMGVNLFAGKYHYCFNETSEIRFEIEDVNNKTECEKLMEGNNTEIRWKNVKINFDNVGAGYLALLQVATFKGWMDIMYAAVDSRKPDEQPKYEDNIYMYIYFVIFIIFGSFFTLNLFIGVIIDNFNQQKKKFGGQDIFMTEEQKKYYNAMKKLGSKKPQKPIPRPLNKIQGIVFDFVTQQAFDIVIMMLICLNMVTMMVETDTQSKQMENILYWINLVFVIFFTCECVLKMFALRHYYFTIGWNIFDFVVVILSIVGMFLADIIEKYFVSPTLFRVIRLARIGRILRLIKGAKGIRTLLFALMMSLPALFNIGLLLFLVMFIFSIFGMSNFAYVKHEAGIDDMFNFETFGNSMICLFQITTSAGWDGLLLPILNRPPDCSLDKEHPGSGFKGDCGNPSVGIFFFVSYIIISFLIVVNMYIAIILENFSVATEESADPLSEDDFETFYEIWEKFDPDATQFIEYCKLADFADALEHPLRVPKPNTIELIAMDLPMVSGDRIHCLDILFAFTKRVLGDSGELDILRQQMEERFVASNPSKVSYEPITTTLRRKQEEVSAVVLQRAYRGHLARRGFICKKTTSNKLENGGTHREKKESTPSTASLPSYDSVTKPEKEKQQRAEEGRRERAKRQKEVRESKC

| SMILES | IC50 [1] | also measured |
| --- | --- | --- |
| Cc1ccc(F)c(C(=O)n2ccc3cc(S(=O)(=O)Nc4nccs4)ccc32)c1 [Compound 195] | 2 to 5 µM |  |
| O=C(Cc1ccc(F)cc1F)N1CCc2cc(S(=O)(=O)Nc3nccs3)ccc21 [Compound 196] | < 2 µM |  |
| O=C(CCc1ccccc1)N1CCc2cc(S(=O)(=O)Nc3nccs3)ccc21 [Compound 197] | < 2 µM |  |
| O=C(CNc1cccc(F)c1)N1CCc2cc(S(=O)(=O)Nc3nccs3)ccc21 [Compound 198] | < 2 µM |  |
| O=C(COc1ccccc1)N1Cc2ccc(S(=O)(=O)Nc3nccs3)cc2C1 [Compound 199] | < 2 µM |  |
| O=C(COc1ccc(F)c(Cl)c1)N1Cc2ccc(S(=O)(=O)Nc3ncns3)cc2C1 [Compound 200] | < 2 µM |  |
| CC(C(=O)n1ccc2cc(S(=O)(=O)Nc3nccs3)ccc21)n1ccc2ccccc21 (stereo not shown) [Compound 201] | > 5 µM |  |
| C[C@H](C(=O)N1CCc2cc(S(=O)(=O)Nc3ncns3)ccc21)n1ccc2ccccc21 [Compound 202] | < 2 µM |  |
| C[C@@H](C(=O)N1Cc2ccc(S(=O)(=O)Nc3ccncn3)cc2C1)n1ccc2c(F)cccc21 [Compound 203] | > 5 µM |  |
| CC(C(=O)N1CCc2cc(S(=O)(=O)Nc3nccs3)ccc21)n1ccc2ccccc21 (stereo not shown) [Compound 204] | < 2 µM |  |
| O=C(CN1CCCc2cc(Cl)ccc21)N1CCc2cc(S(=O)(=O)Nc3ncns3)ccc21 [Compound 205] | < 2 µM |  |
| CC(C)(C)c1ccc(OCC(=O)N2CCCc3cc(S(=O)(=O)Nc4nccs4)ccc32)cc1 [Compound 206] | < 2 µM |  |
| C[C@H](C(=O)N1Cc2ccc(S(=O)(=O)Nc3ncns3)cc2C1)n1ccc2ccccc21 [Compound 207] | < 2 µM |  |
| Cc1ccnc(NS(=O)(=O)c2ccc3c(c2)CCN3C(=O)CCCOc2ccc(Cl)cc2Cl)n1 [Compound 208] | > 5 µM |  |
| O=C(CCn1ccc2cc(Cl)ccc21)N1CCc2cc(S(=O)(=O)Nc3nccs3)ccc21 [Compound 209] | < 2 µM |  |
| NCC1(CC(=O)O)CCCCC1 [Gabapentin] |  | patients in whom it works [2]: 60% |
| NC1=N[C@H](O)[C@H]2[C@H]3O[C@]4(O)O[C@@H]([C@@H](O)[C@@]2(N1)[C@@H]4O)[C@]3(O)CO [TTX, tetrodotoxin] |  | IC50 [3]: > 50 µM; IC50 [4]: 0.015 µM; IC50 [5]: 0.006 µM; IC50 [6]: 0.01 µM; IC50 [7]: 1 µM; IC50 [8]: 0.01 µM |
